The target of assay [1] is Human recombinant DHX9 protein (Homo sapiens (Human), UniProt Q08211). Nature of the assay: DHX9 ATPase assay (ADP-Glo). Type of assay: biochemical. The following applies: for IC50: read-out: DHX9 Biochemical Inflection Point. A general note: ADP-Glo turns the ADP formed in a reaction into a luminescent signal.
In assay [2] the test system is circBRIP1 in HCT116 cells. Nature of the assay: DHX9 circBRIP1 cellular target engagement SYBR Green assay. Type of assay: cell-based. As to conditions: values marked +; read-out: DHX9 Cellular Target Engagement EC50.
In assay [3] the test system is circBRIP1 in HCT116 cells. Nature of the assay: DHX9 circBRIP1 cellular target engagement TaqMan multiplex assay. The class given is cell-based. The following applies: read-out: DHX9 Cellular Target Engagement. On the technique in general: Real-time PCR tracks product formation cycle by cycle.
Where [4] appears, read: Homo sapiens, HCT-116, Taqman assay (*).

Sequence of Human recombinant DHX9 protein (Q08211 whole entry): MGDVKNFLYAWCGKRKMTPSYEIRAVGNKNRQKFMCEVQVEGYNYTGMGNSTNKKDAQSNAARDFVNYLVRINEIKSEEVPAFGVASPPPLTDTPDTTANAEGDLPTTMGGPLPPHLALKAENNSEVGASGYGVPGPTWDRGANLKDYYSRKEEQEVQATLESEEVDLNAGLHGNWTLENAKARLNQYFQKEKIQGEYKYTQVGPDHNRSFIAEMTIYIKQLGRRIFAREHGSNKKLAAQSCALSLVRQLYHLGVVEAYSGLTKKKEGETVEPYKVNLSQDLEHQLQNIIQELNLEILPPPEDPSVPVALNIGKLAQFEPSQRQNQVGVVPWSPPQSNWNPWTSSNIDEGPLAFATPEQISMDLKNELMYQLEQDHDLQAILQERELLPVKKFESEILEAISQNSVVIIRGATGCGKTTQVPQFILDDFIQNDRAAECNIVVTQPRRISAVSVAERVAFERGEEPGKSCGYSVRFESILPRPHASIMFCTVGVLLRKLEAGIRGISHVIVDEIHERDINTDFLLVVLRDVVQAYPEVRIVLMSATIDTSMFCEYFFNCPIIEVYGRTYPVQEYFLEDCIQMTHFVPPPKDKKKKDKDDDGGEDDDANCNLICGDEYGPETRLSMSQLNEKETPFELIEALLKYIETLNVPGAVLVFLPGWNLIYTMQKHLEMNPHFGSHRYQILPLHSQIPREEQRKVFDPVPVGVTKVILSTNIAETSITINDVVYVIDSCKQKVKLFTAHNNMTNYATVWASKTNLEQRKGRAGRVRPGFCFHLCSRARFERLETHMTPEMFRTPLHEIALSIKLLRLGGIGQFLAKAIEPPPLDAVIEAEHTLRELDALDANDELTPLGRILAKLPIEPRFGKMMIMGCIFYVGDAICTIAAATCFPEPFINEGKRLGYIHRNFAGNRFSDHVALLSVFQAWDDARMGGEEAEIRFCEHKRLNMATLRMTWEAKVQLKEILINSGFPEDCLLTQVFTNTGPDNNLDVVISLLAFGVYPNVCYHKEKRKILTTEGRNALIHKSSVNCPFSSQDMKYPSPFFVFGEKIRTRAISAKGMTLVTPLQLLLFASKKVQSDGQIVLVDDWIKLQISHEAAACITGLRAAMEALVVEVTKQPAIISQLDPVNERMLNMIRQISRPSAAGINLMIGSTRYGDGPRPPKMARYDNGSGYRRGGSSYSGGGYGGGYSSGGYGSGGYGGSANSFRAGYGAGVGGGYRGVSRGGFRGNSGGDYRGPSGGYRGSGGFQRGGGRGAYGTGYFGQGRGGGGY

With `CS(=O)(=O)Nc1cc(Cl)cc(NC(=O)c2cnn([C@@H]3CCCC[C@@H]3O)c2)c1` (relative stereo) [Example 153, N-(3-chloro-5-(methylsulfonamido)phenyl)-1-(2-cis-hydroxycyclohexyl)-1H-pyrazole-4-carboxamide], in assay [1], the “DHX9 Biochemical Max Inhibition” value is 59.7% and the IC50 came out at 0.256 µM. In addition, the EC50 in assay [2] amounted to 6.11 µM.
With `CC(Oc1cccnc1-c1cc(C(=O)Nc2cc(Cl)cc(NS(C)(=O)=O)c2)cn1C)c1cc(F)cc(C(F)(F)F)c1` (single isomer, unassigned) [Example 628, N-(3-chloro-5-methanesulfonamidophenyl)-5-{3-[1-[3-fluoro-5-(trifluoromethyl)phenyl]ethoxy]pyridin-2-yl}-1-methyl-1H-pyrrole-3-carboxamide], in assay [3] (Taqman assay (*)), the EC50 turned out to be 1.08 µM. Besides, in assay [1], the “DHX9 Biochemical Max Inhibition” value was 58.1 and the IC50 came out at 0.537 µM.
`CC(Oc1cccnc1-c1cc(C(=O)Nc2cc(Cl)cc(NS(C)(=O)=O)c2)cn1C)c1cc(F)cc(C(F)(F)F)c1` (single isomer, unassigned) [Example 629, N-(3-chloro-5-methanesulfonamidophenyl)-5-{3-[1-[3-fluoro-5-(trifluoromethyl)phenyl]ethoxy]pyridin-2-yl}-1-methyl-1H-pyrrole-3-carboxamide]: the EC50 in assay [3] (Taqman assay (*)) was 0.112 µM. In assay [1], the “DHX9 Biochemical Max Inhibition” value turned out to be 74.8 and the IC50 is 0.0289 µM.
For `Cn1cc(C(=O)Nc2cc(Cl)cc(NS(C)(=O)=O)c2)cc1-c1ncc(N2CC3C(C2)C3(C)C)cc1F` (centres unmarked) [Example 516], the EC50 in assay [3] (setting [4]) came out at 0.22 µM. Moreover, in assay [1], the “DHX9 Biochemical Max Inhibition” value is listed as 57.7 and the IC50 came to 0.204 µM.
With `Cc1sc(C(=O)Nc2cc(Cl)cc(NS(C)(=O)=O)c2)cc1-c1ncc(S(C)(=O)=O)cn1` [Example 711], in assay [1], the “DHX9 Biochemical Max Inhibition” value came out at 69.3 and the IC50 is 0.0321 µM.
The like results for `CS(=O)(=O)Nc1cc(Cl)cc(NC(=O)c2cc(-c3ncc(F)cn3)n(C3CC3)c2)c1` [Example 712] were, in that order, 74.2 and 0.0562 µM.
The like results for `Cc1cc(C(=O)Nc2cc(Cl)cc(NS(C)(=O)=O)c2)cn1-c1ncccc1OCC1CC1` [Example 713] were, in that order, 76 and 0.025 µM.
Regarding `Cn1cc(C(=O)Nc2cc(Cl)cc(NS(C)(=O)=O)c2)cc1-c1ncc(N2CCN(C(=O)C3CC3)CC2)cc1F` [Example 714], in assay [1], the “DHX9 Biochemical Max Inhibition” value was found to be 68.7 and the IC50 was determined as 0.0053 µM.
For `Cc1sc(C(=O)Nc2cc(Cl)cc(NS(C)(=O)=O)c2)cc1-c1ncc(N2CC(F)(F)C2)cc1C#N` [Example 715] the same measures were 67.8 and 0.0103 µM.
For `Cc1sc(C(=O)Nc2cc(Cl)cc(NS(C)(=O)=O)c2)nc1-c1ccc(F)cn1` [Example 716] the same measures were 55.9 and 0.128 µM.
On to `CN(C)C(=O)c1cccc(OCc2cccc(F)c2)c1-n1cc(C(=O)Nc2cc(Cl)cc(NS(C)(=O)=O)c2)cn1` [Example 717], for which, in assay [1], the “DHX9 Biochemical Max Inhibition” value was found to be 68.1 and the IC50 is 0.199 µM.
Consider `CS(=O)(=O)Nc1cc(Cl)cc(NC(=O)c2cnn(-c3c(F)cccc3OCc3cncc(F)c3)c2)c1` [Example 718], for which, in assay [1], the “DHX9 Biochemical Max Inhibition” value is given as 72.7 and the IC50 was 0.0157 µM.
Regarding `CS(=O)(=O)Nc1cc(Cl)cc(NC(=O)c2cnn(-c3ncc(F)cc3OCc3cnco3)c2)c1` [Example 719], in assay [1], the “DHX9 Biochemical Max Inhibition” value was 69.7 and the IC50 was found to be 0.0847 µM.
The like results for `Cc1sc(C(=O)Nc2cc(Cl)cc(NS(C)(=O)=O)c2)cc1-c1ncc(N(C)S(C)(=O)=O)cn1` [Example 720] were, in that order, 72.6 and 0.0252 µM.
For `CS(=O)(=O)Nc1cc(Cl)cc(NC(=O)c2cnn(-c3c(F)cccc3OCc3cnco3)c2)c1` [Example 721] the same measures were 68.1 and 0.231 µM.
For `CS(=O)(=O)Nc1cc(Cl)cc(NC(=O)c2cnn(-c3ccc(N4CC5(COC5)C4)cc3OCc3cccc(F)c3)c2)c1` [Example 722] the same measures were 74.4 and 0.0191 µM.
Regarding `CS(=O)(=O)Nc1cc(Cl)cc(NC(=O)c2cc(CO)n(-c3ncccc3OCc3cncc(F)c3)c2)c1` [Example 723], in assay [1], the “DHX9 Biochemical Max Inhibition” value was found to be 84.3 and the IC50 came to 0.0016 µM.
For `Cc1nc(COc2cc(F)cnc2-c2cc(C(=O)Nc3cc(Cl)cc(NS(C)(=O)=O)c3)cn2C)cs1` [Example 724] the same measures were 80.4 and 0.0197 µM.
The like results for `Cc1noc(C)c1COc1cc(F)cnc1-c1cc(C(=O)Nc2cc(Cl)cc(NS(C)(=O)=O)c2)cn1C` [Example 725] were, in that order, 74 and 0.0365 µM.
The like results for `Cn1cc(C(=O)Nc2cc(Cl)cc(NS(C)(=O)=O)c2)cc1-c1ncc(F)cc1OCc1cnnn1C` [Example 726] were, in that order, 88.1 and 0.0175 µM.
`Cn1cc(C(=O)Nc2cc(Cl)cc(NS(C)(=O)=O)c2)cc1-c1ccccc1/C=C/c1cncc(F)c1` [Example 727]: in assay [1], the “DHX9 Biochemical Max Inhibition” value was determined as 55.3 and the IC50 was determined as 9.03 µM.
As to `Cn1cc(C(=O)Nc2cc(Cl)cc(NS(C)(=O)=O)c2)cc1-c1ncc(F)cc1CCc1cncc(F)c1` [Example 728], the EC50 in assay [3] (setting [4]) came out at 1.35 µM. Besides, in assay [1], the “DHX9 Biochemical Max Inhibition” value amounted to 62.5 and the IC50 turned out to be 0.158 µM.
Regarding `Cn1cc(C(=O)Nc2cc(Cl)cc(NS(C)(=O)=O)c2)cc1-c1ncc(F)cc1/C=C/c1cncc(F)c1` [Example 729], in assay [1], the “DHX9 Biochemical Max Inhibition” value turned out to be 45.5 and the IC50 turned out to be 0.114 µM.
For `CCc1cncc(COc2cccnc2-c2cc(C(=O)Nc3cc(Cl)cc(NS(C)(=O)=O)c3)cn2C)c1` [Example 730] the same measures were 72.6 and 0.0117 µM.
With `CS(=O)(=O)Nc1cc(Cl)cc(NC(=O)c2cc(C(=O)N3CCOCC3)n(-c3ccccn3)c2)c1` [Example 731], in assay [1], the “DHX9 Biochemical Max Inhibition” value came to 69.1 and the IC50 stood at 0.0635 µM.
For `Cc1sc(C(=O)Nc2cc(Cl)cc(NS(C)(=O)=O)c2)cc1-c1ncc(F)cc1OCc1cnco1` [Example 732] the same measures were 70.8 and 0.0105 µM.
For `Cn1cc(C(=O)Nc2cc(Cl)cc(NS(C)(=O)=O)c2)cc1-c1ncc(N2CC(F)(F)C2)cc1OCc1cnco1` [Example 733] the same measures were 61.3 and 0.0218 µM.
For `Cc1ncc(OCc2cc(F)cc(F)c2)c(-c2cc(C(=O)Nc3cc(Cl)cc(NS(C)(=O)=O)c3)cn2C)n1` [Example 734] the same measures were 71.2 and 0.0066 µM.
Consider `CS(=O)(=O)Nc1cc(Cl)cc(NC(=O)c2cc(-c3ncc(F)cc3OCc3cncnc3)n(CC(F)(F)F)c2)c1` [Example 735], for which, in assay [1], the “DHX9 Biochemical Max Inhibition” value is listed as 80.1 and the IC50 is 0.007 µM.
For `Cc1sc(C(=O)Nc2cc(Cl)cc(NS(C)(=O)=O)c2)cc1-c1c(F)cc(F)c[n+]1[O-]` [Example 736] the same measures were 70.3 and 0.0549 µM.

Source of the values: patent US20240316047A1, “INHIBITORS OF RNA HELICASE DHX9 AND USES THEREOF” (ACCENT THERAPEUTICS, INC., priority 2022, published 2024).
